How the values were obtained:
DGKα = DGKα (Homo sapiens (Human), UniProt P23743); experiment: In vitro DGKα inhibition assay (ADP-Glo); format: biochemical; conditions: His-tagged human recombinant enzyme, 0.1 nM DGKα, 50 μM ATP, 20 μM DLG, 90 minute incubation
Description: (§1) The DGKα and DGKξ biochemical reactions were performed using His-tagged human recombinant enzymes (Signal Chem, DGKα, #D21-1OBH; DGKξ, #D30-10H)) and DLG (Dilauroyl-sn-glycerol) lipid substrate (Signal Chem, #D430-59). ADP-Glo assay was performed using ADP-Glog™ kinase Assay kit (Promega, #V9104). The reactions were carried out in assay buffer containing 40 mM Tris, pH 7.5, 0.1% CHAPS, 0.1% Prionex, 40 mM NaCl, 5 mM MgCl2, 1 mM CaCl2, and 1 mM DTT. DGKα reactions contained 0.1 nM DGKα, 50 μM ATP, and 20 μM DLG. And DGKC reactions contained 0.4 nM DGK, 30 μM ATP, and 20 μM DLG.
(§2) For compound inhibition studies, 40 nL test compound in DMSO was added to wells of white polystyrene plates in 384-well (Greiner, #784075) or 1536-well format (Greiner, #782075). Compounds were added with top concentration of 2 mM with 11 point, 3-fold dilution series. Enzyme solution (contains 2×DGK enzyme concentration in Ix assay buffer) was added to the plate in 2 μL/well volume, followed by 2 μL/well of substrate solution (contains 2×concentration of ATP and DLG substrate in Ix assay buffer). Plates were then centrifuged for 1 min at 1200 RPM and sealed or lidded. For 4 μL reaction volume, test compounds were therefore diluted 100× to final top concentration of 20 μM. After 90 minute incubation, reactions were quenched by addition of 2 μL/well Promega ADP-Glo Reagent, followed by centrifugation and lidding. After 60 min incubation, 2 μL/well Promega Kinase Detection Reagent was added, plates centrifuged, and incubated for 30 min. Plates were then read using Luminescence method on BMG PHERAstar FSX plate reader. Percent inhibition was calculated and IC50s were determined using 4-parameter fit in Genedata Screener. Labcyte Echo acoustic dispenser was used for compound addition, and Formulatrix Tempest liquid handler was used for all reagent dispenses.

DGKζ = DGKζ (Homo sapiens (Human), UniProt Q13574); experiment: In vitro DGKζ inhibition assay (ADP-Glo); format: biochemical; conditions: His-tagged human recombinant enzyme, 0.4 nM DGK, 30 μM ATP, 20 μM DLG, 90 minute incubation
Description: as §1, §2

DGKα, sequence (P23743 whole entry): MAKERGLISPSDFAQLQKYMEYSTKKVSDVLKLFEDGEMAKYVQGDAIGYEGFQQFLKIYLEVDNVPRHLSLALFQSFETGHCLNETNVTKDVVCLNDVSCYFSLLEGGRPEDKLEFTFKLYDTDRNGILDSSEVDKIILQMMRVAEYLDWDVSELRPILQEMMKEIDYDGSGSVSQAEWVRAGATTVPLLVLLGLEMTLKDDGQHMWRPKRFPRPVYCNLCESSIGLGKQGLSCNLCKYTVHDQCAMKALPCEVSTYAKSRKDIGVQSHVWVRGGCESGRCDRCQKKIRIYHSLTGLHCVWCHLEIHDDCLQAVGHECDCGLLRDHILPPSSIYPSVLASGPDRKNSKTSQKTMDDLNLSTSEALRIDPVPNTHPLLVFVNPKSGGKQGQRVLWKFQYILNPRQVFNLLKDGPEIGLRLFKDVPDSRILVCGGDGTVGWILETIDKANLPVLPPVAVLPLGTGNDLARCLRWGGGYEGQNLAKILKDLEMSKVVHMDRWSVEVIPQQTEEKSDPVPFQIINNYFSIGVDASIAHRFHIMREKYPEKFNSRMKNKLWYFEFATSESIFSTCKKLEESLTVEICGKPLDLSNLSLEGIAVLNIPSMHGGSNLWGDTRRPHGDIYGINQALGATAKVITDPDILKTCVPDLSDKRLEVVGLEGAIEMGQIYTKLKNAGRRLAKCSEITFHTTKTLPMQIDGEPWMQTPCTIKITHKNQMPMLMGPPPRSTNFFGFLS
DGKζ, sequence (Q13574 whole entry): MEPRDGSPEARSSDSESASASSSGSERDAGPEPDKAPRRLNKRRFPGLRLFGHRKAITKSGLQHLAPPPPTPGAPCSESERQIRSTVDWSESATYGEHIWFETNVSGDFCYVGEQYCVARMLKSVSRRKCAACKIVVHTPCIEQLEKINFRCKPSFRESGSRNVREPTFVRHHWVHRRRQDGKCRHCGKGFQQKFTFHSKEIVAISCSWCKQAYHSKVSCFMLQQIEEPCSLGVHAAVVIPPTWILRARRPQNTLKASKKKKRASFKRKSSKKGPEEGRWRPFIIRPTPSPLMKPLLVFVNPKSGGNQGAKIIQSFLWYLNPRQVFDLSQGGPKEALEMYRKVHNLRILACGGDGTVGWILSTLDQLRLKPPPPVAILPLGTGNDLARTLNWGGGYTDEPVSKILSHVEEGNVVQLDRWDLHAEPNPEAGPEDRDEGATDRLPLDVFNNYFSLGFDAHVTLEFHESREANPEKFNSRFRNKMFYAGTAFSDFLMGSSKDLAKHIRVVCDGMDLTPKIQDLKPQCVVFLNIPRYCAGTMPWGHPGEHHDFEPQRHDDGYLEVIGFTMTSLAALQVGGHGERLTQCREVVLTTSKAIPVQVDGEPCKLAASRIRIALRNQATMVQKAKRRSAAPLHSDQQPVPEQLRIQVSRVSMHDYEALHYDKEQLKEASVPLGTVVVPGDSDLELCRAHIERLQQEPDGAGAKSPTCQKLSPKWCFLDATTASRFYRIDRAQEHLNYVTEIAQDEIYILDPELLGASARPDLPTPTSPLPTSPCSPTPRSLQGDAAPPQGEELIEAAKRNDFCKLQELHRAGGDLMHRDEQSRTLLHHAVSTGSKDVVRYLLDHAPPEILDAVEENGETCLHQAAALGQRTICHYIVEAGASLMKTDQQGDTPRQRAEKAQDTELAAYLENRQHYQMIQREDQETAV

IC50 (DGKα) [nM]	IC50 (DGKζ) [nM]	SMILES
≤ 20	≤ 20	Cc1nc2c(N3C[C@@H](C)N([C@H](c4cccc(F)c4)C(C)C)C[C@@H]3C)nc3nncn3c2n1C[C@@H]1CCCO1 [Example 94, 4-((2S,5R)-4-((S)-1-(3-Fluorophenyl)-2-methylpropyl)-2,5-dimethylpiperazin-1-yl)-2-methyl-1-(((S)-tetrahydrofuran-2-yl)methyl)-1H-[1,2,4]triazolo[3,4-b]purine]
≤ 20	≤ 20	Cc1nc2c(N3C[C@@H](C)N([C@H](c4ccc(OC(F)F)cc4)C(C)C)C[C@@H]3C)nc3nncn3c2n1C[C@@H]1CCCO1 [Example 79, 4-((2S,5R)-4-((S)-1-(4-(Difluoromethoxy)phenyl)-2-methylpropyl)-2,5-dimethylpiperazin-1-yl)-2-methyl-1-(((S)-tetrahydrofuran-2-yl)methyl)-1H-[1,2,4]triazolo[3,4-b]purine]
≤ 20	≤ 20	C[C@@H]1CN(c2nc3nncn3c3c2ncn3CCN(C)C)[C@@H](C)CN1C(c1ccc(Cl)cc1)C1CC(F)(F)C1 (single isomer, unassigned) [Example 64]
≤ 20	> 2000	C[C@@H]1CN(c2cc3nncn3c3ccsc23)[C@@H](C)CN1C(c1ccc(F)cc1)c1ccc(F)cc1 [Example 11, 5-((2S,5R)-4-(Bis(4-fluorophenyl)methyl)-2,5-dimethylpiperazin-1-yl)thieno[2,3-e][1,2,4]triazolo[4,3-a]pyridine]
≤ 20	≤ 20	Cc1nc2c(N3C[C@@H](C)N([C@H](c4ccc(Br)cc4)C(C)C)C[C@@H]3C)nc3nncn3c2n1C[C@@H]1CCCO1 [Example 138, 4-((2S,5R)-4-((S)-1-(4-Bromophenyl)-2-methylpropyl)-2,5-dimethylpiperazin-1-yl)-2-methyl-1-(((S)-tetrahydrofuran-2-yl)methyl)-1H-[1,2,4]triazolo[3,4-b]purine]
≤ 20	≤ 20	Cc1nc2c(N3C[C@@H](C)N([C@@H](c4ccc(C(F)(F)F)cc4)C(C)C)C[C@@H]3C)nc3nncn3c2n1C[C@@H]1CCCO1 [Example 68, 4-((2S,5R)-2,5-dimethyl-4-((R)-2-methyl-1-(4-(trifluoromethyl)phenyl)propyl)piperazin-1-yl)-2-methyl-1-(((S)-tetrahydrofuran-2-yl)methyl)-1H-[1,2,4]triazolo[3,4-b]purine]
≤ 20	≤ 20	Cc1nc2c(N3C[C@@H](C)N([C@@H](c4ccc(Cl)c(Cl)c4)C4CC(F)(F)C4)C[C@@H]3C)nc3nncn3c2n1C[C@@H]1CCCO1 [Example 49, 4-((2S,5R)-4-((R)-(3,4-dichlorophenyl)(3,3-difluorocyclobutyl)methyl)-2,5-dimethylpiperazin-1-yl)-2-methyl-1-(((S)-tetrahydrofuran-2-yl)methyl)-1H-[1,2,4]triazolo[3,4-b]purine]
≤ 20	≤ 20	CC[C@H]1CN(C(c2ccc(F)cc2)c2ccc(F)cc2)[C@H](CC)CN1c1nc2nncn2c2c1nnn2C[C@H]1CCCO1 [Example 33, 4-((2S,5R)-4-(Bis(4-fluorophenyl)methyl)-2,5-diethylpiperazin-1-yl)-1-(((R)-tetrahydrofuran-2-yl)methyl)-1H-[1,2,3]triazolo[4,5-e][1,2,4]triazolo[4,3-a]pyrimidine]
≤ 20	≤ 20	Cc1nc2c(N3C[C@@H](C)N([C@@H](c4ccc(F)c(F)c4)C4CC(F)(F)C4)C[C@@H]3C)nc3nncn3c2n1C[C@@H]1CCCO1 [Example 47, 4-((2S,5R)-4-((R)-(3,3-difluorocyclobutyl)(3,4-difluorophenyl)methyl)-2,5-dimethylpiperazin-1-yl)-2-methyl-1-(((S)-tetrahydrofuran-2-yl)methyl)-1H-[1,2,4]triazolo[3,4-b]purine]
≤ 20	> 2000	C[C@@H]1CN(c2nc3nncn3c3c2cnn3C)[C@@H](C)CN1C(c1ccc(F)cc1)c1ccc(F)cc1 [Example 6, 4-((2S,5R)-4-(Bis(4-fluorophenyl)methyl)-2,5-dimethylpiperazin-1-yl)-1-methyl-1H-pyrazolo[4,3-e][1,2,4]triazolo[4,3-a]pyrimidine]
≤ 20	≤ 20	Cc1nc2c(N3C[C@@H](C)N([C@@H](c4ccc(OC(F)F)cc4F)C(C)C)C[C@@H]3C)nc3nncn3c2n1C[C@@H]1CCCO1 [Example 76, 4-((2S,5R)-4-((R)-1-(4-(difluoromethoxy)-2-fluorophenyl)-2-methylpropyl)-2,5-dimethylpiperazin-1-yl)-2-methyl-1-(((S)-tetrahydrofuran-2-yl)methyl)-1H-[1,2,4]triazolo[3,4-b]purine]
≤ 20	≤ 20	C[C@@H]1CN(c2nc3nncn3c3c2ncn3CCN(C)C)[C@@H](C)CN1C(c1ccc(Br)cc1)C1CC(F)(F)C1 (stereo partly drawn) [Example 65, 2-(4-((2S,5R)-4-((4-Bromophenyl)(3,3-difluorocyclobutyl)methyl)-2,5-dimethylpiperazin-1-yl)-1H-[1,2,4]triazolo[3,4-b]purin-1-yl)-N,N-dimethylethan-1-amine]
≤ 20	≤ 20	Cc1nc2c(N3C[C@@H](C)N([C@H](c4cccc(C(F)(F)F)c4)C(C)C)C[C@@H]3C)nc3nncn3c2n1C[C@@H]1CCCO1 [Example 69, 4-((2S,5R)-2,5-Dimethyl-4-((S)-2-methyl-1-(3-(trifluoromethyl)phenyl)propyl)piperazin-1-yl)-2-methyl-1-(((S)-tetrahydrofuran-2-yl)methyl)-1H-[1,2,4]triazolo[3,4-b]purine]
≤ 20	≤ 20	Cc1nc2c(N3C[C@@H](C)N([C@@H](c4ccc(Br)cc4)C(C)C)C[C@@H]3C)nc3nncn3c2n1C[C@@H]1CCCO1 [Example 139, 4-((2S,5R)-4-((R)-1-(4-bromophenyl)-2-methylpropyl)-2,5-dimethylpiperazin-1-yl)-2-methyl-1-(((S)-tetrahydrofuran-2-yl)methyl)-1H-[1,2,4]triazolo[3,4-b]purine]
≤ 20	≤ 20	Cc1nc2c(N3C[C@@H](C)N(C(c4ccc(Cl)cc4)C4CC(F)(F)C4)C[C@@H]3C)nc3nncn3c2n1C[C@@H]1CCCO1 (stereo partly drawn) [Example 60, 4-((2S,5R)-4-((4-Chlorophenyl)(3,3-difluorocyclobutyl)methyl)-2,5-dimethylpiperazin-1-yl)-2-methyl-1-(((S)-tetrahydrofuran-2-yl)methyl)-1H-[1,2,4]triazolo[3,4-b]purine]
≤ 20	≤ 20	CC[C@@H]1CN(c2nc3nncn3c3c2nnn3C[C@@H]2CCCO2)[C@@H](C)CN1C(c1ccc(Cl)cc1)c1ccc(Cl)cc1 [Example 39, 4-((2S,5R)-4-(Bis(4-chlorophenyl)methyl)-5-ethyl-2-methylpiperazin-1-yl)-1-(((S)-tetrahydrofuran-2-yl)methyl)-1H-[1,2,3]triazolo[4,5-e][1,2,4]triazolo[4,3-a]pyrimidine]
≤ 20	≤ 20	Cc1nc2c(N3C[C@@H](C)N(C(c4cc(F)c(F)c(F)c4)C4CC(F)(F)C4)C[C@@H]3C)nc3nncn3c2n1C[C@@H]1CCCO1 (stereo partly drawn) [Example 52, 4-((2S,5R)-4-((3,3-Difluorocyclobutyl)(3,4,5-trifluorophenyl)methyl)-2,5-dimethylpiperazin-1-yl)-2-methyl-1-(((S)-tetrahydrofuran-2-yl)methyl)-1H-[1,2,4]triazolo[3,4-b]purine]
≤ 20	≤ 20	[2H]c1nc2c(N3C[C@@H](C)N(C(c4ccc(F)cc4)c4ccc(F)cc4)C[C@@H]3C)nc3nncn3c2n1CCN(C)C [Example 34, 2-(4-((2S,5R)-4-(Bis(4-fluorophenyl)methyl)-2,5-dimethylpiperazin-1-yl)-1H-[1,2,4]triazolo[3,4-b]purin-1-yl-2-d)-N,N-dimethylethan-1-amine]
≤ 20	≤ 20	Cc1nc2c(N3C[C@@H](C)N(C(c4ccc(Cl)c(C(F)(F)F)c4)C4CC(F)(F)C4)C[C@@H]3C)nc3nncn3c2n1C[C@@H]1CCCO1 (stereo partly drawn) [Example 59, 4-((2S,5R)-4-((4-Chloro-3-(trifluoromethyl)phenyl)(3,3-difluorocyclobutyl)methyl)-2,5-dimethylpiperazin-1-yl)-2-methyl-1-(((S)-tetrahydrofuran-2-yl)methyl)-1H-[1,2,4]triazolo[3,4-b]purine]
≤ 20	≤ 20	Cc1nc2c(N3C[C@@H](C)N([C@H](c4ccc(F)c(F)c4)C4CC(F)(F)C4)C[C@@H]3C)nc3nncn3c2n1C[C@@H]1CCCO1 [Example 46, 4-((2S,5R)-4-((S)-(3,3-Difluorocyclobutyl)(3,4-difluorophenyl)methyl)-2,5-dimethylpiperazin-1-yl)-2-methyl-1-(((S)-tetrahydrofuran-2-yl)methyl)-1H-[1,2,4]triazolo[3,4-b]purine]
